Format in all cases: cell-based
Data set [1] deals with SARS-CoV-2 virus (hCoV-19/Egypt/NRC-03/2020). The data set can be described thus: microbe, parasite or virus in culture.
A further data set in a line: MTT cytotoxicity assay. The following applies: African green monkey. The procedure:
(§1) To assess the half maximal cytotoxic concentration (CC50), stock solutions of the test compounds were prepared in 10% DMSO in ddH2O and diluted further to the working solutions with DMEM. The cytotoxic activity of the extracts was tested in Vero E6 cells by using the 3-(4,5-dimethylthiazol-2-yl)-2,5-diphenyltetrazolium bromide (MTT) method with minor modifications. Briefly, the cells were seeded in 96-well plates (100 µL/well at a density of 3 × 10^5 cells/mL) and incubated for 24 h at 37 °C in 5%CO2. After 24 h, cells were treated with various concentrations of the tested compounds in triplicates. 24 h later, the supernatant was discarded, and cell monolayers were washed with sterile 1x phosphate buffer saline (PBS) 3 times and MTT solution (20 µL of 5 mg/mL stock solution) was add to each well and incubated at 37 °C for 4 h followed by medium aspiration. In each well, the formed formazan crystals were dissolved with 200 µL of acidified isopropanol (0.04 M HCl in absolute isopropanol = 0.073 mL HCL in 50 mL isopropanol). Absorbance of formazan solutions was measured at λ max 540 nm with 620 nm as a reference wavelength using a multi-well plate reader. The percentage of cytotoxicity compared to the untreated cells was determined with the following equation.
For orientation: Formazan colour is commonly taken as a measure of viable cells.

A further data set deals with Vero E6 cells. As to the kind of experiment: MTT cytotoxicity assay. The following applies: Vero E6 cells, MTT, 24 h treatment. The procedure: as §1
The mark [2] stands for this setting: Severe acute respiratory syndrome coronavirus 2, Vero C1008, 72 h, read-out: IC50 against SARS-CoV-2.
[3] abbreviates: Severe acute respiratory syndrome coronavirus 2, Vero C1008, 72 h, read-out: IC50 against SARS-CoV-2 (Figure 2).
Setting [4] is: Vero E6 cells, MTT, 24 h treatment, read-out: CC50 (Figure 2).
The mark [5] stands for this setting: Vero E6 cells, MTT, 24 h treatment, read-out: CC50.

The values below come from publication PMC8949533, “Aurasperone A Inhibits SARS CoV-2 In Vitro: An Integrated In Vitro and In Silico Study” (Marine Drugs, 2022).

As usually defined, the IC50 is the concentration that inhibits the measured activity by half. As a reminder, the CC50 is the concentration giving 50% cytotoxicity.

Read-outs that look alike come from different tables or passages of the source.

With `COc1cc(OC)c2c(O)c3c(=O)cc(C)oc3c(-c3c(OC)cc4cc(O)c5c(=O)cc(C)oc5c4c3OC)c2c1` [Fonsecinone A (4), fonsecinone A], the “selectivity index (SI = CC50/IC50)” value in data set [1] stood at 4.7. The IC50 in data set [1] (setting [2]) came out at 61.1 µM; in data set [1] (setting [3]), 61.6 µM. Further, in “MTT cytotoxicity assay” (setting [4]), the CC50 at 24 h came to 288 µM.

Regarding `CCC(CC)COC(=O)[C@H](C)N[P@](=O)(OC[C@H]1O[C@@](C#N)(c2ccc3c(N)ncnn23)[C@H](O)[C@@H]1O)Oc1ccccc1` [remdesivir, reference compound], the “selectivity index (SI = CC50/IC50)” value in data set [1] (CC50 in Vero E6 cells / IC50 against SARS-CoV-2) stood at 41.07. Also, the IC50 in data set [1] (Severe acute respiratory syndrome coronavirus 2, Vero C1008, Vero E6 cells infected with hCoV-19/Egypt/NRC-03/2020, 72 h, CPE reduction by 50%, read-out: IC50 against SARS-CoV-2) came to 10.1 µM. The CC50 at 24 h in the data set “MTT cytotoxicity assay” (setting [5]) amounted to 415 µM. The CC50 in the data set with Vero E6 cells was determined as 415 µM.

With `COc1cc(OC)c2c(c1)cc(O)c1c(=O)cc(C)oc12` [Flavasperone (1), flavasperone], in data set [1] (setting [3]), the IC50 stood at 204 µM. Moreover, the half-maximal cytotoxic concentration (CC50) at 24 h in “MTT cytotoxicity assay” (setting [4]) was found to be 189 µM.

For `COc1cc(OC)c2c(O)c3c(=O)cc(C)oc3c(-c3c(OC)cc4cc5oc(C)cc(=O)c5c(O)c4c3OC)c2c1` [Aurasperone A (3), aurasperone A], the “selectivity index (SI = CC50/IC50)” value in data set [1] amounted to 2641.5. Further, the IC50 in data set [1] (setting [2]) came out at 12.2 µM. Also, the CC50 at 24 h in the data set “MTT cytotoxicity assay” (setting [5]) and in the data set “MTT cytotoxicity assay” (setting [4]) was 32400 µM each time.

In the case of `COc1cc(OC)c2c(O)c3c(=O)cc(C)oc3c(-c3c(OC)cc(OC)c4c(O)c5c(=O)cc(C)oc5cc34)c2c1` [Rubasperone B (6), rubasperone B], the IC50 in data set [1] (Severe acute respiratory syndrome coronavirus 2, Vero C1008, Vero E6 cells infected with hCoV-19/Egypt/NRC-03/2020, 72 h, read-out: IC50 against SARS-CoV-2 (Figure 2)) was found to be 105 µM. The compound further yielded a CC50 at 24 h in the data set “MTT cytotoxicity assay” of 181 µM.
